In brackets after ≈: the same amount, converted by molar mass.
Legend:
[1] = tested on: Cavia porcellus; settings: acute; Inhalation
[2] = tested on: Rattus norvegicus; settings: Sprague-Dawley
[3] = tested on: Oryctolagus sp.; settings: acute; dermal; occlusive; New Zealand
[4] = tested on: Canidae; settings: chronic; duration: 12 months; oral; capsule; Dog Other; Liver: Increased relative weight
[5] = tested on: Canidae; settings: oral, diet, M/F, Dog Other
[6] = tested on: Anatidae; settings: oral
[7] = tested on: Canidae; settings: subchronic, duration: 5 weeks, inhalation, unknown, renal
[8] = tested on: Rattus norvegicus; settings: chronic; duration: 91 days; oral; drinking water; M/F; Sprague-Dawley; renal
[9] = tested on: Monkey; settings: chronic; duration: 5 years; inhalation; M/F; Rhesus; respiratory
[10] = tested on: Monkey; settings: duration: 13 weeks, oral, flavoured beverage, F, Cynomolgus, Estrogenic effects on maturation of vaginal epithelial cells
[11] = tested on: Mus musculus; settings: subchronic; duration: 13 weeks; oral; gavage; M/F; CD1; hepatic
[12] = tested on: Mus musculus; settings: subchronic; duration: 90 days; oral; gavage; M/F; CD-10 (ICR) BR; Whole Body Effects
[13] = tested on: Mus musculus; settings: subchronic; oral; M/F; no effects
[14] = tested on: Homo sapiens; settings: clinical; oral; Blood: Increased prothrombin time
[15] = tested on: Homo sapiens; settings: clinical; oral; M/F; increased prothrombin time
[16] = tested on: Dog, Rat; settings: subchronic; duration: 13 weeks; oral; diet; Kidney: Effects + Liver: Effects
[17] = tested on: Rattus norvegicus; settings: subchronic; duration: 90 days; oral; diet; M/F; increased liver and kidney weight
[18] = reproduction developmental, duration: 19 days, oral, gavage
[19] = chronic, duration: 12 months, increased relative liver weight in male dogs
[20] = subchronic, duration: 13 weeks, Male reproductive toxicity and other effects (including decreased body weight gain), increased liver and kidney weights

CC(C)(N=C=O)c1cccc(C(C)(C)N=C=O)c1 [1,3-Bis(2-isocyanato-2-propyl)benzene]
LC50 [1]: 0.24 µg/mL (≈ 0.982 µM) | LC50 ([2]; acute, inhalation): 0.027 µg/mL (≈ 0.111 µM) | LD50 ([2]; acute, oral, gavage): > 5000 mg/kg | LOAEL [2, 18]: 250 mg/kg-day | NOAEL [2, 18]: 150 mg/kg-day | NOAEL ([2]; reproduction developmental, duration: 19 days, oral, gavage, generation: F0): 150 mg/kg-day | NOAEL ([2]; reproduction developmental, duration: 19 days, oral, gavage, generation: F1): 250 mg/kg-day | NOAEL ([2]; reproduction developmental, oral, gavage, F): 150 mg/kg-day | NOAEL ([2]; reproduction developmental, oral, gavage, generation: F1): 250 mg/kg-day | NOAEL ([2]; short-term, duration: 4 weeks, Inhalation): 1.5 mg/m3 | LD50 [3]: > 2000 mg/kg

CCSC(=O)N(CC(C)C)CC(C)C [Butylate]
NOEL [4]: 5 mg/kg-day | LOAEL [5, 19]: 25 mg/kg-day | NOAEL [5, 19]: 5 mg/kg-day

[U] [Uranium]
NOAEL [6]: 16 mg/kg-day | LOAEL ([7]; not reported): 0.15 mg/m3 | NOAEL ([7]; unspecified): 1.1 mg/m3 | LOAEL [8]: 0.06 mg/kg-day | LOAEL [9]: 5.1 mg/m3

CC1CCCC(O)CCCCCc2cc(O)cc(O)c2C(=O)O1 (stereo unspecified)
NOEL [10]: 0.05 mg/kg-day | NOEL ([10]; subchronic): 0.05 mg/kg-day

c1ccc2cc3ccccc3cc2c1 [Anthracene]
NOAEL [11]: 1000 mg/kg-day | NOEL [12]: 1000 mg/kg-day | NOEL [13]: 1000 mg/kg-day

CC(=O)CC(c1ccccc1)c1c(O)c2ccccc2oc1=O (stereo unspecified) [Warfarin]
LOAEL [14]: 2 mg/day | LOAEL [15]: 0.029 mg/kg-day

Cc1cc(Cl)ccc1OCCCC(=O)O [Thitrol]
NOEL [16]: 12 mg/kg-day | LEL [5, 20]: 40 mg/kg-day | NOEL [5, 20]: 12 mg/kg-day | LEL [17]: 40 mg/kg-day | NOEL [17]: 12 mg/kg-day

Source: EPA's ToxValDB 9.5
